This is an account of results in US5055613A, “Metabolites of pentanedioic acid derivatives” (G. D. Searle & Co., priority 1988, dated 1991).

The test system of assay [1] is fed hepatocytes. Kind of assay: Glucose release, lactate and pyruvate (metabolites) in isolated fed hepatocytes. Type of assay: cell-based, rat. The settings on record: 0.5 mM; for Pyruvate: No Addition 0.186 ± 0.040; for Lactate: No Addition 0.317 ± 0.095. How it is done:
(§1) Hepatocytes are prepared from ad lib fed rats or 8-hour fasted rats by the method of Berry and Friend (1969) with minor modifications (McCune and Harris, 1979 J. Biol. Chem. 254,10095-10101.) Lean female rats (200-300 g) are ad lib fed and on a 8:00 a.m.-8:00 p.m. light cycle. The cells are isolated between 9:00-10:00 a.m., to compensate for any diurnal rhythms such as glycogen depletion.
(§2) The cells are suspended in 2 mls of Krebs-Henseleit buffer supplemented with 2% BSA (essentially fatty acid free and dialyzed) under an atmosphere of 95% O2, 5% CO2 in stoppered 25 ml Erlenmeyer flasks. Incubations were conducted in a shaking water bath at 37° C. for appropriate times. Cells for fatty acid and cholesterol synthesis were treated with […] of H2 O(10mCi/ml) after 30 minutes of pre-incubation and stopped at 60 minutes.
Assay of metabolites: Cells are terminated with HClO4 (0.1 ml of 60%) and treated as described previously; McCune et al., 1981 Methods of Enzymology 72, 557-559). The metabolites in the extracts are measured spectrophotometrically by enzymatic methods, according to the methods of Hohorst et al. (1959 Biochem. Z., 332,18-46) for pyruvate and lactate, Williamson et al. (1962) for acetoacetate and beta-hydroxybutyrate, Slein (1965) for glucose, Michal and Bergmeyer (1974) for acetyl-CoA, McCune, et al. (ibid) for glycogen, Mollering and Gruber (1966 Anal. Biochem. 17, 369-379) for citrate, and Lambrecht and Trautschold (1974 Methods of Enzymatic Analysis, 2101 2109) for ATP.
(§3) Various compounds of the present invention were added to various concentrations to the hepatocytes and incubated for a short period of time. The effect of the compound was evaluated on cholesterol, fatty acid and glucose synthesis as well on other metabolites in the cell.

For assay [2], the system named is fed hepatocytes. Kind of assay: Fatty acid and cholesterol synthesis in isolated fed hepatocytes. The settings on record: 0.5 mM; for Cholesterol Synthesis: No Addition 0.013 ± 0.002; for Fatty Acid Synthesis: No Addition 0.024 ± 0.004. Type of assay: cell-based, rat. How it is done: as §1, §2
Determination of cholesterol and fatty acid synthesis: The rate of fatty acid synthesis and cholesterol synthesis, expressed as moles of acetate equivalents/g wet weight of hepatocytes are determined by the incorporation of H2 O into total lipid, and extracted by the methods of Kates (1972 Tech. of Lipidology, 349, 363) and Harris (1975 Arch. Biochem. Biophys. 169, 168-180). Calculations are done according to Jungas (1968 Biochemistry 7, 3708-3717).
as §3

Consider `COC(=O)C(C)(C)CCCCCCCCCCCC(O)(CC(=O)O)CC(=O)O` [Example 10, 3-(12-Carbomethoxy-12-methyl-tridecyl)-3-hydroxy glutaric acid], for which, in the assay with fed hepatocytes [1], the Pyruvate was 0.220 ± 0.031 mmoles/ml incubation medium and the Lactate is recorded as 0.477 ± 0.084 mmoles/ml incubation medium. Besides, in the assay on fed hepatocytes [2], the “Cholesterol Synthesis” value was 0.003 ± 0.001 mmoles/min/gm wet weight and the “Fatty Acid Synthesis” value is 0.003 ± 0.001 mmoles/min/gm wet weight.
With `CC(C)(CCCCCCCCCCCC(O)(CC(=O)O)CC(=O)O)C(=O)O` [Example 11, 3-(12-Carboxy-12-methyl-tridecyl)-3-hydroxy glutaric acid], in the assay on fed hepatocytes [1], the Pyruvate is 0.202 ± 0.028 mmoles/ml incubation medium and the Lactate is recorded as 0.437 ± 0.104 mmoles/ml incubation medium. Moreover, in the assay on fed hepatocytes [2], the “Cholesterol Synthesis” value was determined as 0.002 ± 0.001 mmoles/min/gm wet weight and the “Fatty Acid Synthesis” value amounted to 0.003 ± 0.001 mmoles/min/gm wet weight.
On to `CC(C)(CO)CCCCCCCCCCCC(O)(CC(=O)O)CC(=O)O` [Example 14, 3-(13-Hydroxy-12,12-dimethyl-tridecyl)-3-hydroxy glutaric acid], for which, in the assay on fed hepatocytes [1], the Pyruvate is given as 0.185 ± 0.042 mmoles/ml incubation medium and the Lactate is recorded as 0.400 ± 0.091 mmoles/ml incubation medium. In the assay on fed hepatocytes [2], the “Cholesterol Synthesis” value is 0.004 ± 0.001 mmoles/min/gm wet weight and the “Fatty Acid Synthesis” value came to 0.003 ± 0.001 mmoles/min/gm wet weight.
In the case of `CC(C)(C)CCCCCCCCCCCC(O)(CC(=O)O)CC(=O)O` [Prior Art Compound, 3hydroxy-3-[12,12dimethyltridecyl]glutaric acid, reference compound], in the assay on fed hepatocytes [1], the Pyruvate is given as 0.110 ± 0.013 mmoles/ml incubation medium and the Lactate is on record as 0.383 ± 0.085 mmoles/ml incubation medium. Further, in the assay with fed hepatocytes [2], the “Cholesterol Synthesis” value is 0.010 ± 0.002 mmoles/min/gm wet weight and the “Fatty Acid Synthesis” value was 0.010 ± 0.002 mmoles/min/gm wet weight.
